Like-named read-outs stand apart in the source and are kept apart here.

We go through three compounds from patent US6613356B1, “Weight loss medication and method” (priority 2000, dated 2003).

Data set [1] relates to mouse colons. Conditions: cited from earlier work.
Data set [2] is described as follows: About 9 week (67 day) test in adult mice with butyrate added to food. It counts as in vivo. Conditions: 67 day test period. The protocol:
Another test on adult mice was run for about 9 weeks. Butyrate was mixed with chocolate and/or cornstarch and the mixture was added to the mice's food (a commercial guinea pig food—Aytec Supreme Daily Blend Guinea Pig Diet). The butyrate dose started at 11.1 mg per mouse twice a day at the beginning of the study and ended up at 58 mg per mouse twice a day at the end of the study. The non-butyrate-fed mice had the same chocolate and/or cornstarch added to their food in equal weight compared to the butyrate-fed mice. The four butyrate mice gained an average of 50 mg each over the 67 day test period, and the four non-butyrate mice gained an average of 325 mg each over the 67 day test period. While no weight loss occurred in either group the butyrate mice gained less weight, by a ratio of about 6.5 to 1.

Data set [3] can be described thus: Experimental administration of potassium butyrate capsules as a weight loss agent to two human volunteers. It counts as in vivo. On the set-up: triglyceride values / total cholesterol / HDL / LDL / triglycerides: unit not given here. The protocol: Based on the inherent safety of butyrate as discussed in medical literature, experimental administration of butyrate was begun on two volunteers. Tests on the two human volunteers has produced weight loss of 17 pounds and 40 pounds respectively at a dosage of 3-5 capsules, once or twice daily (volunteer #1); or 3-5 capsules three times per day (volunteer #2). Each capsule contained approximately 140 mg of potassium butyrate at the start of the test period, and 231 mg each at the end of the test period. The butyrate capsules typically contain 231 to 287 mg of potassium butyrate and 345 to 431 mg of corn starch and 345 to 431 mg of sodium bicarbonate in a 920 to 1 100 mg Size 0 Lilly gelatin capsule. The potassium butyrate is prepared by oxidizing 1-butanol with potassium permanganate in aqueous solution at between 180° F. and 212° F. This reaction produces manganese dioxide and butyric acid and KOH. The manganese dioxide is quite insoluble and is filtered out, and the butyric acid is then neutralized by the potassium hydroxide formed, thus forming the salt, potassium butyrate. The following reactions are thought to produce the potassium butyrate:
The inventor, after having been convinced by the medical literature of the inherent safety of butyrate in humans, began experimental administration of potassium butyrate as a weight loss agent to two volunteers, one of which was […]. The starting dose was 23 mg twice a day, in capsules containing 230 mg of a 10% mixture each. Volunteer #1's starting weight then was 185 lb measured in the morning, fasting. Volunteer #1's height was […] making their body mass index (BMI) […]. Note this is in the range regarded as being overweight (25-30). The dose was increased to 66 mg twice a day a couple of days later, and after 20 days the weight declined to 181 lb. The dose was increased to 130 mg twice a day before meals after about a month. Weight after 2 months was 174 lb. During the 4th through 7th month, the dose averaged 280 mg twice a day on about half the days, skipping it on alternate days. Weight reached its lowest point after about 7 months: 168 lb, BMI 24.5, which is the upper range of normal. After that, the dose has been an average of […] once a day, taken before meals, but only used on alternate days. The weight on this low dose rose to 174 lb and has stayed within 4 lb of that for the last 5 months.
Another test subject, volunteer #2, started on potassium butyrate when weight was 256 lb, height 5′3″, BMI 40. Prior to this use of butyrate, subject's most successful weight losses was 50 lb over a 3 month period while on Optifast program, a 400 calorie a day supplemented fasting program.
The starting dose of butyrate was 40 mg three times a day. It was rapidly escalated to 560 mg before each meal and continued on that dose for about 6 months, when the dose was increased to 800 mg three times a day. Weight after 6 months was 222 lbs. The same dose was continued from that point for another 6 months. Then their weight was 220. Dose was then increased to 1150 mg three times a day for another 8 days. Then their weight was 216 after about a year, for a total of 40 lbs of weight loss during this slightly more than one year duration clinical trial. BMI declined to 35.

The conditions of data set [4]: cited from earlier work.
Data set [5] is described as follows: 10 week experiment in adolescent common white mice fed K butyrate in chocolate. It counts as in vivo. As for the experimental part: Two mouse experiments involved 8 adolescent common white mice, still in the growth period. Four were assigned to the butyrate group and were fed K butyrate mixed in pieces of chocolate 300-400 mg size twice a day, and the other four mice were assigned to the non-butyrate group and were fed the same size pieces of plain chocolate. Both groups of mice were otherwise cared for in an identical fashion and fed twice as many food pellets as recommended. The dose of butyrate initially chosen was 3.47 mg per dose scaled down from the human dose according to the ratio of body surface area of mouse compared to man. This was estimated at 1:250.

Turning to `CCCC(=O)O` [alkaline butyrate ion, reference compound], the colitis entry in data set [1] (mouse, in vivo) is recorded as “did not cause colitis”.
For `CCCC(=O)O` [butyric acid], the colitis entry in data set [1] (1% concentration instilled into mouse colons) was “caused colitis”.
On to `CCCC(=O)[O-].[K+]` [potassium butyrate], for which the “average weight gain per mouse” value in data set [2] (11.1 to 58 mg per mouse twice a day, non-butyrate mice 325 mg) is given as 50 mg; in data set [5] (adolescent mice, 10 week experiment, 3.47 then 11.5 mg twice a day, non-butyrate mice 18.6 grams), 17 grams. The “ratio of weight gain, non-butyrate to butyrate mice” value in data set [2] (ratio to 1) was “about 6.5”. For the same compound, the adverse effects entry in data set [3] (volunteer #1) is listed as “No adverse effects occurred except for occasional transient epigastric aching soon after a dose”. Besides, the “cholesterol and cholesterol ratios” value in data set [3] (volunteer #1) is reported as “not changed significantly”. Further, the “halitosis or foul eructation” value in data set [3] (volunteer #1) was “No halitosis or foul eructation occurred”. Further, in data set [3] (volunteer #1), the “liver enzymes and liver function tests” value is “remained normal”. In addition, the weight loss in data set [3] (volunteer #1, 3-5 capsules once or twice daily) was determined as 17 pounds; in data set [3] (volunteer #2, 3-5 capsules three times per day), 40 pounds. The weight in data set [3] (volunteer #1, after 2 months, 130 mg twice a day before meals, starting weight 185 lb) was found to be 174 lb; in data set [3] (volunteer #1, after 20 days, 23 then 66 mg twice a day, starting weight 185 lb), 181 lb; in data set [3] (volunteer #1, low dose, average 660 mg once a day on alternate days, stayed within 4 lb for the last 5 months), 174 lb; in data set [3] (volunteer #2, after 6 months, 560 mg before each meal, starting weight 256 lb), 222 lbs; in data set [3] (volunteer #2, after about a year, 1150 mg three times a day for another 8 days, starting weight 256 lb) it was 216 lbs; in data set [3] (volunteer #2, after another 6 months at 800 mg three times a day, starting weight 256 lb), 220 lbs. In addition, the triglyceride values in data set [3] (volunteer #1, after about 6 months, initially 310) is 230. Moreover, the “weight, lowest point” value in data set [3] (volunteer #1, after about 7 months, 280 mg twice a day on about half the days, starting weight 185 lb) stood at 168 lb. In addition, the “body mass index (BMI)” value in data set [3] (volunteer #1, after about 7 months, starting BMI 27) was found to be 24.5. Also, the “carpal tunnel syndrome symptoms” value in data set [3] (volunteer #1, after about 14 months) is recorded as “improved markedly”. In addition, in data set [3] (volunteer #1, after about 14 months, hypertension before required 4 mg per day Cardura), the blood pressure entry is “normal without medication”. In addition, in data set [3] (volunteer #1, checked periodically), the “blood counts and survey chemistries (SMA-18 or comprehensive chemistry)” value is given as “normal”. The HDL cholesterol in data set [3] (volunteer #1, over 4 months, from 48) was determined as 47. Further, the total cholesterol is 236 in data set [3] (volunteer #1, over 4 months, from 235) and 238 in data set [3] (volunteer #2, dropped from 266). Besides, the fatigue entry in data set [3] (volunteer #2) is “lessened”. For the same compound, the “feeling of general well being” value in data set [3] (volunteer #2) is “improved”. For the same compound, the “exercise tolerance on treadmill exercise stress tests” value in data set [3] (volunteer #2, after 1 year's use vs previous test) was “almost doubled”. Also, in data set [3] (volunteer #2, after 1 year's use, previous test 4 minutes), the “time able to walk on treadmill in stress test” value stood at 7 min. Moreover, in data set [3] (volunteer #2, after about a year, starting BMI 40), the BMI is 35. Also, the “abnormalities on periodic comprehensive chemistry blood tests and blood counts” value in data set [3] (volunteer #2, during butyrate use) is recorded as “no abnormalities have appeared”. This compound also registered an HDL in data set [3] (volunteer #2, from 56) of 52. The LDL in data set [3] (volunteer #2, from 160) amounted to 150. For the same compound, the triglycerides in data set [3] (volunteer #2, from 269) worked out at 179. This compound had a total weight loss in data set [3] (volunteer #2, slightly more than one year) of 40 lbs. Also, the “half-life in the serum” value in data set [4] is 2 min. Further, the tolerability entry in data set [5] (adolescent mice, 3.47 mg per dose twice a day) is reported as “well tolerated”. In addition, the “weight gain less than non-butyrate mice” value in data set [5] (adolescent mice, 10 week experiment) is “about 10%”. Further, in data set [5] (mice), the “difference in behavior, activity or agility vs non-butyrate group” value is recorded as “no difference”.
